# Assay results taken from patent US20250144067A1, “PERSONALIZED STARVATION THERAPY FOR CANCER” (Faeth Therapeutics, Inc., priority 2021, published 2025).
# Where a name gives a salt, the structure may show the parent alone.
# Key:
# [1] = tested on: NCI-H292 lung cancer cells; test: FDA drug screening, complete media vs cholesterol-free media with simvastatin (TABLE 2); format: cell-based, human; conditions: for Cholesterol-free media + simvastatin (0.04 μM) / Complete Media: NCI-H292 cells
# [2] = tested on: NCI-H292 lung cancer cells; test: FDA drug screening, complete media vs cholesterol-free media without statin (TABLE 1); format: cell-based, human
# [3] = FDA drug library screen, cholesterol-free media with simvastatin 0.04 μM
# [4] = FDA drug library screen, complete media
# [5] = complete media vs cholesterol-free media + simvastatin (0.04 μM), >0 enhanced anti-cancer activity, about 0 neutral, <0 antagonist
# [6] = NCI-H292 cells, cholesterol-free media without statin, FDA drug library screen
# [7] = NCI-H292 cells, complete media, FDA drug library screen
# [8] = complete vs cholesterol-free media, >0 enhanced anti-cancer activity, about 0 neutral, <0 antagonist
# [9] = cholesterol-free media with simvastatin 0.04 μM, FDA drug library screen (TABLE 2)
# [10] = complete media, FDA drug library screen (TABLE 2)
# [11] = complete media minus cholesterol-free media + simvastatin (0.04 μM), >0 enhanced anti-cancer activity, about 0 neutral, <0 antagonist
# [12] = Complete minus Cholesterol-free, […]
# [13] = cholesterol-free media with simvastatin 0.04 μM, cell growth value in FDA drug screen
# [14] = complete media, cell growth value in FDA drug screen
# [15] = complete media minus cholesterol-free media + simvastatin, >0 enhanced anti-cancer activity, about 0 neutral, <0 antagonist
# [16] = NCI-H292 cells, cholesterol-free media without statin
# [17] = complete vs cholesterol-free media, greater than 0 enhanced anti-cancer activity, about 0 neutral, below 0 antagonists
# [18] = FDA library drug in cholesterol-free media with simvastatin 0.04 μM
# [19] = FDA library drug in complete media
# [20] = complete media vs cholesterol-free media + simvastatin (0.04 μM), […]
# [21] = drug in cholesterol-free media with simvastatin 0.04 μM
# [22] = Complete minus Cholesterol-free, greater than 0 enhanced anti-cancer activity, about 0 neutral, below 0 antagonists
# [23] = NCI-H292 cells in cholesterol-free media without statin
# [24] = NCI-H292 cells in complete media
# [25] = Complete minus Cholesterol-free, >0 enhanced anti-cancer activity, about 0 neutral, <0 antagonist
molecule,measurement,setting,value
CC[C@H]1OC(=O)[C@H](C)[C@@H](O[C@H]2C[C@@](C)(OC)[C@@H](O)[C@H](C)O2)[C@H](C)[C@@H](O[C@@H]2O[C@H](C)C[C@H](N(C)C)[C@H]2O)[C@](C)(O)C[C@@H](C)/C(=N\OCOCCOC)[C@H](C)[C@@H](O)[C@]1(C)O [Roxithromycin],Cholesterol-free media + simvastatin (0.04 μM),[1]; [3],0.9837
same,Complete Media,[1]; [4],0.8382
same,Difference,[1]; [5],−0.15
same,Cholesterol-free,[2]; [6],0.9904
same,Complete,[2]; [7],1.336
same,Difference,[2]; [8],0.35
Cc1ccc(-c2ncc(Cl)cc2-c2ccc(S(C)(=O)=O)cc2)cn1 [Etoricoxib],Cholesterol-free media + simvastatin (0.04 μM),[1]; [9],1.501
same,Complete Media,[1]; [10],1.49
same,Difference,[1]; [11],−0.01
same,Cholesterol-free,[2]; [6],1.045
same,Complete,[2]; [7],1.321
same,Difference,[2]; [8],0.28
O=S(=O)(O)c1ccc2[nH]c(-c3ccccc3)nc2c1 [Ensulizole],Cholesterol-free media + simvastatin (0.04 μM),[1]; [9],0.9021
same,Complete Media,[1]; [10],0.8833
same,Difference,"[1]; complete media minus cholesterol-free media + simvastatin (0.04 μM), […]",−0.02
same,Difference,[2]; [12],0.07
same,Cholesterol-free,[2]; [6],0.8614
same,Complete,[2]; [7],0.9314
CCC[C@@H]1C[C@@H](C(=O)N[C@@H]([C@H]2O[C@H](SC)[C@H](O)[C@@H](O)[C@H]2O)[C@@H](C)O)N(C)C1 [Lincomycin (hydrochloride monohydrate)],Cholesterol-free media + simvastatin (0.04 μM),[1]; [13],0.819
same,Complete Media,[1]; [14],0.8378
same,Difference,[1]; [15],0.02
same,Cholesterol-free,[2]; [16],1.114
same,Complete,"[2]; NCI-H292 cells, complete media",0.7781
same,Difference,[2]; [17],−0.34
Cc1nnc(NS(=O)(=O)c2ccc(N)cc2)s1 [Sulfamethizole],Cholesterol-free media + simvastatin (0.04 μM),[1]; [9],1.154
same,Complete Media,[1]; [10],1.13
same,Difference,[1]; [11],−0.02
same,Cholesterol-free,[2]; [6],0.6059
same,Complete,[2]; [7],1.186
same,Difference,[2]; [8],0.58
Rilmenidine (hemifumarate),Cholesterol-free media + simvastatin (0.04 μM),[1]; [18],1.87
same,Complete Media,[1]; [19],1.431
same,Difference,[1]; [20],−0.44
same,Cholesterol-free,[2]; [16],1.211
same,Complete,"[2]; NCI-H292 cells, complete media",0.771
same,Difference,"[2]; complete vs cholesterol-free media, […]",−0.44
COc1ccc(-c2ccc3cc(C(=O)O)ccc3c2)cc1C12CC3CC(CC(C3)C1)C2 [Adapalene],Cholesterol-free media + simvastatin (0.04 μM),[1]; [9],0.9237
same,Complete Media,[1]; [10],0.9286
same,Difference,[1]; [11],0.00
same,Cholesterol-free,[2]; [6],0.6976
same,Complete,[2]; [7],1.022
same,Difference,[2]; [8],0.32
Goserelin (acetate),Cholesterol-free media + simvastatin (0.04 μM),[1]; [21],1.497
same,Complete Media,[1]; drug in complete media,1.249
same,Difference,[1]; [20],−0.25
same,Difference,[2]; [12],−0.26
same,Cholesterol-free,[2]; [16],1.173
same,Complete,"[2]; NCI-H292 cells, complete media",0.9084
N[C@@H](Cc1c[nH]cn1)C(=O)O [L-Histidine],Cholesterol-free media + simvastatin (0.04 μM),[1]; [13],1.86
same,Complete Media,[1]; [14],1.878
same,Difference,[1]; [15],0.02
same,Difference,[2]; [22],−0.88
same,Cholesterol-free,[2]; [23],2.131
same,Complete,[2]; [24],1.254
"CC1CCC(C(C)C)C(O)C1 (single isomer, unassigned; (-)) [(−)-Menthol]",Cholesterol-free media + simvastatin (0.04 μM),[1]; [18],1.223
same,Complete Media,[1]; [19],0.8866
same,Difference,[1]; [5],−0.34
same,Cholesterol-free,[2]; [16],1.434
same,Complete,"[2]; NCI-H292 cells, complete media",1.115
same,Difference,[2]; [17],−0.32
Cn1c(CCCC(=O)O)nc2cc(N(CCCl)CCCl)ccc21 [Bendamustine (hydrochloride)],Cholesterol-free media + simvastatin (0.04 μM),[1]; [21],1.142
same,Complete Media,[1]; drug in complete media,0.9554
same,Difference,[1]; [20],−0.19
same,Difference,[2]; [12],−0.21
same,Cholesterol-free,[2]; [16],1.195
same,Complete,"[2]; NCI-H292 cells, complete media",0.9866
Clc1ccc2c(c1)C(N1CCNCC1)=Nc1ccccc1O2 [Amoxapine],Cholesterol-free media + simvastatin (0.04 μM),[1]; [18],1.586
same,Complete Media,[1]; [19],1.017
same,Difference,[1]; [5],−0.57
same,Cholesterol-free,[2]; [6],1.3
same,Complete,[2]; [7],1.39
same,Difference,[2]; [8],0.09
O=C(O)[C@H]1O[C@@H](Oc2cc3oc(-c4ccccc4)cc(=O)c3c(O)c2O)[C@H](O)[C@@H](O)[C@@H]1O [Baicalin],Cholesterol-free media + simvastatin (0.04 μM),[1]; [21],1.298
same,Complete Media,[1]; drug in complete media,1.093
same,Difference,[1]; [5],−0.20
same,Difference,[2]; [25],−0.04
same,Cholesterol-free,[2]; [6],1.064
same,Complete,[2]; [7],1.025
O=C1NS(=O)(=O)c2ccccc21 [Saccharin],Cholesterol-free media + simvastatin (0.04 μM),[1]; [3],0.8779
same,Complete Media,[1]; [4],0.7765
same,Difference,[1]; [5],−0.10
same,Difference,[2]; [25],0.01
same,Cholesterol-free,[2]; [6],0.9292
same,Complete,[2]; [7],0.9415
CCCc1c2oc(C(=O)O)cc(=O)c2cc2c(=O)cc(C(=O)O)n(CC)c12 [Nedocromil],Cholesterol-free media + simvastatin (0.04 μM),[1]; [18],1.951
same,Complete Media,[1]; [19],1.336
same,Difference,[1]; [5],−0.61
same,Cholesterol-free,[2]; [6],1.678
same,Complete,[2]; [7],1.893
same,Difference,[2]; [8],0.22
CCO/N=C(\C(=O)N[C@@H]1C(=O)N2C(C(=O)[O-])=C(Sc3nc(-c4cc[n+](C)cc4)cs3)CS[C@H]12)c1nsc(NP(=O)(O)O)n1 [Ceftaroline fosamil],Cholesterol-free media + simvastatin (0.04 μM),[1]; [3],1.027
same,Complete Media,[1]; [4],0.9313
same,Difference,[1]; [5],−0.10
same,Difference,[2]; [22],−0.71
same,Cholesterol-free,[2]; [23],1.53
same,Complete,[2]; [24],0.8244
Ruxolitinib (phosphate),Cholesterol-free media + simvastatin (0.04 μM),[1]; [21],0.8715
same,Complete Media,[1]; drug in complete media,0.6795
same,Difference,[1]; [5],−0.19
same,Difference,[2]; [25],−0.04
same,Cholesterol-free,[2]; [6],0.6764
same,Complete,[2]; [7],0.6315
CCCC[C@H](C)C[C@H](O)/C=C/[C@H]1[C@H](O)CC(=O)[C@@H]1CCCC/C=C/C(=O)O [Limaprost],Cholesterol-free media + simvastatin (0.04 μM),[1]; [21],1.214
same,Complete Media,[1]; drug in complete media,0.9724
same,Difference,[1]; [5],−0.24
same,Cholesterol-free,[2]; [16],1.4
same,Complete,"[2]; NCI-H292 cells, complete media",0.949
same,Difference,[2]; [17],−0.45
Nc1ccc(S(=O)(=O)Nc2nccs2)cc1 [Sulfathiazole (sodium)],Cholesterol-free media + simvastatin (0.04 μM),[1]; [18],1.852
same,Complete Media,[1]; [19],1.04
same,Difference,[1]; [5],−0.81
same,Difference,[2]; [25],−0.22
same,Cholesterol-free,[2]; [16],1.264
same,Complete,"[2]; NCI-H292 cells, complete media",1.047
CCCCN1CCCC[C@H]1C(=O)Nc1c(C)cccc1C [Levobupivacaine (hydrochloride)],Cholesterol-free media + simvastatin (0.04 μM),[1]; [13],0.871
same,Complete Media,[1]; [14],0.9154
same,Difference,[1]; [15],0.04
same,Cholesterol-free,[2]; [16],1.298
same,Complete,"[2]; NCI-H292 cells, complete media",0.9683
same,Difference,[2]; [17],−0.33
CNCc1ccc(-c2[nH]c3cc(F)cc4c3c2CCNC4=O)cc1 [Rucaparib],Cholesterol-free media + simvastatin (0.04 μM),[1]; [18],1.04
same,Complete Media,[1]; [19],0.7044
same,Difference,[1]; [5],−0.34
same,Difference,[2]; [25],−0.02
same,Cholesterol-free,[2]; [6],0.9041
same,Complete,[2]; [7],0.881
O=C(O[C@H]1CN2CCC1CC2)N1CCc2ccccc2[C@@H]1c1ccccc1 [Solifenacin],Cholesterol-free media + simvastatin (0.04 μM),[1]; [18],1.222
same,Complete Media,[1]; [19],0.9497
same,Difference,[1]; [5],−0.27
same,Difference,[2]; [25],−0.26
same,Cholesterol-free,[2]; [16],1.142
same,Complete,"[2]; NCI-H292 cells, complete media",0.8797
Cc1ccc(C)c(OCCCC(C)(C)C(=O)O)c1 [Gemfibrozil],Cholesterol-free media + simvastatin (0.04 μM),[1]; [3],1.808
same,Complete Media,[1]; [4],1.701
same,Difference,[1]; [5],−0.11
same,Cholesterol-free,[2]; [16],1.369
same,Complete,"[2]; NCI-H292 cells, complete media",0.9198
same,Difference,[2]; [17],−0.45
C[C@@H]1C[C@H]2[C@@H]3CCC4=CC(=O)C=C[C@]4(C)[C@@]3(F)[C@@H](O)C[C@]2(C)[C@@]1(O)C(=O)COP(=O)([O-])[O-].[Na+].[Na+] [Dexamethasone phosphate disodium],Cholesterol-free media + simvastatin (0.04 μM),[1]; [3],0.6625
same,Complete Media,[1]; [4],1.229
same,Difference,[1]; [15],0.57
same,Difference,[2]; [25],−0.02
same,Cholesterol-free,[2]; [6],0.7426
same,Complete,[2]; [7],0.7227
COc1cc(Nc2ncc(F)c(Nc3ccc4c(n3)N(COP(=O)(O)O)C(=O)C(C)(C)O4)n2)cc(OC)c1OC [Fostamatinib Disodium],Cholesterol-free media + simvastatin (0.04 μM),[1]; [3],0.7811
same,Complete Media,[1]; [4],0.6698
same,Difference,[1]; [5],−0.11
same,Difference,[2]; [25],−0.20
same,Cholesterol-free,[2]; [16],1.102
same,Complete,"[2]; NCI-H292 cells, complete media",0.9004
CCOC(=O)[C@@H](N)Cc1ccc(-c2cc(O[C@H](c3ccc(Cl)cc3-n3ccc(C)n3)C(F)(F)F)nc(N)n2)cc1 [Telotristat ethyl],Cholesterol-free media + simvastatin (0.04 μM),[1]; [3],1.11
same,Complete Media,[1]; [4],0.9913
same,Difference,[1]; [5],−0.12
same,Cholesterol-free,[2]; [16],1.253
same,Complete,"[2]; NCI-H292 cells, complete media",0.9282
same,Difference,[2]; [17],−0.32
Cc1c(-c2ccccc2)oc2c(C(=O)OCCN3CCCCC3)cccc2c1=O [Flavoxate (hydrochloride)],Cholesterol-free media + simvastatin (0.04 μM),[1]; [9],0.9542
same,Complete Media,[1]; [10],0.8849
same,Difference,[1]; [11],−0.07
same,Difference,[2]; [25],0.01
same,Cholesterol-free,[2]; [6],0.984
same,Complete,[2]; [7],0.9957
C#C[C@]1(OC(C)=O)CC[C@H]2[C@@H]3CCC4=C[C@@H](OC(C)=O)CC[C@@H]4[C@H]3CC[C@@]21C [Ethynodiol diacetate],Cholesterol-free media + simvastatin (0.04 μM),[1]; [18],1.26
same,Complete Media,[1]; [19],0.9323
same,Difference,[1]; [5],−0.33
same,Difference,[2]; [22],−0.50
same,Cholesterol-free,[2]; [23],1.654
same,Complete,[2]; [24],1.155
